We go through 14 substances from patent US20240216250A1, “COSMETIC PEPTIDES FOR IMPROVING SKIN REJUVENATION” (Lean Life Sciences, Inc., priority 2021, published 2024).

“Also recorded” adds a separate entry of the source.

For assay [1], the system named is skin cells. The assay can be described thus: Fructose, glucose and sucrose concentration in skin cells, same manner as Example 1-1. The settings on record: Example 1-18, present tense. The assay is classed as cell-based. The procedure:
(§1) Fructose concentration in 3T3-L1 cell lysates was measured using the Fructose Assay Kit (Abcam, Cambridge, UK). Six-well plates were seeded with 5×10^5 3T3-L1 cells/well one day before treating with 150 μM peptide. After 48 hours of treatment, the cells were harvested and fructose concentrations were assayed according to the manufacturer's instruction.
An additional group of skin cells are treated with one of KGGRAKD, KGG, GGR, GRA, RAK, AKD, DKA, KAR, ARG, RGG, GGK, and DKARGGK in the same manner as Example 1-1.
An additional group of skin cells were treated with […] (SEQ ID NO: 5) in the same manner as Example 1-1.
(§2) An additional group of skin cells are treated with one of […] (SEQ ID NO: 3) and […] (SEQ ID NO: 4) in the same manner as Example 1-1.

Assay [2] deals with skin cells. The experiment in a line: Collagen and fibronectin levels in skin cells upon peptide treatment. The assay is classed as cell-based. The settings on record: Example 1-18, at a particular concentration, present tense. As to the method:
as §2
The fructose, glucose, and sucrose concentrations in the groups where the above peptides are treated are not affected (data not shown), while the extra cellular matrix molecules, collagen and fibronectin, are determined.

For another assay, the system named is 3T3-L1 mature adipocytes. The experiment in a line: Lipid accumulation in 3T3-L1 adipocytes by Oil Red O staining, with cell count. Conditions: for Decrease in degree of lipid accumulation: 3T3-L1 mature adipocytes, quantitative Oil Red O analysis, Day 21 (H of FIG. 3); for Number and size of lipid droplets in adipocytes: Oil Red O, microscopy, peptides at 100 μM, three times per week for three weeks (Day 21), vs non-treated control; for Reduction of lipid accumulation: murine-based in vitro systems. Type of assay: cell-based, mouse. The procedure: FIG. 3: Representative photomicrographs showing Oil Red O-stained mature adipocytes treated with peptides at 100 μM (Day 21). H: Quantitative analysis of the lipids accumulated in the adipocytes (Day 21). Control absorbance: 0.526 (Red line). I: Relative cell counts on day 21.
The effects of the minimal short peptides in blocking lipid accumulation in adipocytes were compared with their parent full-length peptide. After generating five different 3 amino acid fragments (KGG, GGR, GRA, RAK, and AKD) from the original ATS peptide (KGGRAKD (SEQ ID NO:1)), each peptide was administered to 3T3-L1 pre-adipocytes in five varying concentrations. Peptides were treated to the adipocytes three times per week for three weeks. Oil Red O staining was utilized to assess the lipid contents in mature adipocytes in culture. The morphological characteristics of 3T3-L1 mature adipocytes were observed by microscopy. […] Furthermore, the lipids were quantitatively analyzed.
The number of viable cells is counted prior to Oil Red O staining using Cell Counting Kit 8 (Dojindo). This cell viability study allows one to determine potential toxicities of the peptides and compensate for cell number variation-causing artifacts. Oil Red O is dissolved in isopropanol at […] to create a working solution. 12 ml of Oil Red O working solution is mixed with 8 ml dH2O and incubated for 10 minutes. This solution is then filtered using a 0.2 μm syringe filter. Adipocytes seeded on 96-well plates are washed with PBS twice. 10% formaldehyde is added for initial fixation and the plates are incubated for at least 30 minutes. The formaldehyde is removed and the cells are once again washed twice, this time with dH2O. 60% isopropanol is added to each well. The plates are incubated for 5 minutes. The isopropanol is removed from the wells and replaced with Oil Red O working solution. The plates are incubated for an additional 10 minutes. The Oil Red O solution is removed and washed four times with dH2O. Lastly, digital micrographs of the lipid droplets in adipocytes are taken using a light microscope. After the staining protocol, all plates are washed three times with 60% isopropanol. Each time, 5 minutes of gentle rocking was used. The Oil Red O is extracted with 100% isopropanol with gentle rocking for 5 minutes. 200 μl isopropanol per well is used as a background to measure absorbance at 492 nm using a BioTek microplate reader.

The test system of another assay is DIO mice. The assay can be described thus: Body weight gain in DIO mice: obesity progression model (OPM) and obesity model (OM). The assay is classed as in vivo. Conditions: for Prevention of body weight gain: pre-obese OPM mice on HFD; for Anti-obesity efficacy (body weight): oral administration. The procedure:
Prior to oral administration, peptides were administered to DIO mice via intraperitoneal (IP) and subcutaneous (SC) injections.
In the first phase, peptides were tested on pre-obese mice that were being fed high fat diet (HFD) to induce obesity (obesity progression model, OPM). In the second phase, these peptides were given to mice that had already developed obesity (obesity model, OM). […] As the activity of these three peptides varies depending on the injection route and the disease status, all three peptides, GGR, RAK, and AKD, were tested by oral administration.
Prior to oral administration, GGR, RAK, AKD, full-length ATS, and scrambled RKG peptides were administered to OPM mice via IP and SC injections to further screen an ideal peptide composition. PBS was included as a vehicle group. GGR, RAK, and AKD peptides were discovered to impede body weight gain in OPM mice. GGR and RAK were effective when given IP injections and AKD was effective by SC injections (FIGS. 4 and 5).
The second phase signified the post-obesity stage, where the same methods from phase 1 were used on OM mice.
(§3) GGR, RAK, and AKD peptides were tested in OPM and OM mice by oral administration. […] In obesity progression, adipocytes increase in both number and size due to escalating lipid accumulation (Parlee, S. D., et al., Methods Enzymol 537, 93-122, (2014)). Using the methods described above, abdominal fat pads of GGR, RAK, AKD, or PBS-treated DIO mice were histologically analyzed. Epididymal fat tissues were harvested from two mice per experimental group. All samples were fixed in 4% paraformaldehyde, H&E-stained, and imaged. At a 10× magnification, adipocyte cell counting was performed on the digital slide images using an automated adipocyte counting macro with the ImageJ software. A default thresholding method was used and [cell] sizing boundaries of 40-40,000 were set. Limitations of the segmentation tool led to some erroneous selections or regions of interest (ROI), which were manually corrected by adding or erasing lines. The number of cells per representative field were then determined using the ROI manager in ImageJ. Two or three high power fields (hpf) per tissue and two tissue samples per group were analyzed to reduce variability. Average cell count for each group was calculated accordingly. Areas of all adipocytes of interest were measured using the ROI measurement tool (ImageJ) and average area per cell was calculated accordingly.

The test system of a further assay is 3T3-L1 cells. The experiment in a line: Fructose, glucose and sucrose concentration in adipocytes (3T3-L1 cell lysates, Fructose Assay Kit). Type of assay: cell-based, mouse. As to the method:
as §1
In order to confirm the effect of peptides on reducing the fructose level in adipocytes, three groups of adipocytes were prepared. Among the three groups, one group was treated with GGR, and another group was treated with RAK. The remaining group was not treated with any peptides and used as a control group. […] Fructose—an intermediate metabolite of glucose—was measured to further probe glucose metabolism. 3T3-L1 cells treated with either peptide had lower fructose concentrations than untreated cells (FIG. 1).
An additional group of adipocytes are treated with one of KGGRAKD, KGG, GGR, GRA, RAK, AKD, DKA, KAR, ARG, RGG, GGK, and DKARGGK in the same manner as Example 1-1.

In assay [3] the test system is abdominal fat pads of DIO mice. The assay can be described thus: Histological analysis of fat pads of DIO mice (adipocyte number and size). The assay is classed as in vivo. The settings on record: epididymal fat. As to the method:
FIG. 10. Histological analysis fat pads. An automated system detected and counted adipocytes (yellow line). Adipocyte number and size: average of 3 hpf images from 2 mice (total 6 images/group).
as §3
The primary function of adipocytes is to store energy in the form of lipids. The volume of lipid stored in an adipocyte cell increases as the third power of the diameter. Because mature adipocytes are composed of large lipid droplets that are surrounded by very thin cytoplasmic layers, the increase in volume of an adipocyte cell likely indicates increased lipid storage. Thus, smaller adipocyte size/area translates to reduced lipid accumulation.

Where [4] appears, read: Examples 1-2 to 1-11, same manner as Example 1-1.
Where [5] appears, read: post-obese OM mice, IP injection.
[6] abbreviates: post-obese OM mice, SC injection.
Setting [7] is: 3T3-L1 cells, 150 μM peptide, 48 hours, vs untreated control (FIG. 1).

For the substance ACSSSPSKHCGGGSESPLKRQG, in the assay on skin cells [1], the “Fructose concentration in skin cells” value was “not affected”, the “Glucose concentration in skin cells” value was “not affected” and the “Sucrose concentration in skin cells” value is “not affected”. Further, in the assay with skin cells [2], the “Collagen in skin cells vs control group” value is “significantly higher than the control group” and the “Fibronectin in skin cells vs control group” value is “significantly higher than the control group”.

ACTGSTQHQGGGSEHGAMEI: in the assay on skin cells [1], the “Fructose concentration in skin cells” value was “not affected”, the “Glucose concentration in skin cells” value is recorded as “not affected” and the “Sucrose concentration in skin cells” value is recorded as “not affected”. In the assay on skin cells [2], the “Collagen in skin cells vs control group” value is given as “significantly higher than the control group” and the “Fibronectin in skin cells vs control group” value is listed as “significantly higher than the control group”.

For AKD, in the assay on 3T3-L1 mature adipocytes, the “Decrease in degree of lipid accumulation” value is “approximately 20%”; the “Number and size of lipid droplets in adipocytes” value (shortened to “Number and size”) is reported as “smaller than those in the non-treated control”; the “Reduction of lipid accumulation” value was “effective in reducing lipid accumulation”. In the assay with DIO mice (SC injection), the “Prevention of body weight gain” value was “best working peptide; also recorded: effective”. The “Anti-obesity efficacy (body weight)” value with DIO mice (pre-obese OPM mice) is “efficacious over GGR”. In the assay on 3T3-L1 cells (setting [4]), the “Fructose concentration in adipocytes vs control group” value was “significantly lower than the control group”.

Consider ARG, for which the “Fructose concentration in adipocytes vs control group” value in the assay with 3T3-L1 cells (setting [4]) is “significantly lower than the control group”.

For the substance DKA, the “Fructose concentration in adipocytes vs control group” value in the assay with 3T3-L1 cells (setting [4]) is “significantly lower than the control group”.

As for DKARGGK, in the assay with 3T3-L1 cells (setting [4]), the “Fructose concentration in adipocytes vs control group” value is “significantly lower than the control group”.

As to GGK, the “Fructose concentration in adipocytes vs control group” value with 3T3-L1 cells (setting [4]) is reported as “significantly lower than the control group”.

With GGR, in the assay with 3T3-L1 mature adipocytes, the “Decrease in degree of lipid accumulation” value is reported as “approximately 20%”; the “Number and size” value is “smaller than those in the non-treated control”; the “Reduction of lipid accumulation” value is “effective in reducing lipid accumulation”. Moreover, the “Prevention of body weight gain / body weight change” value in the assay on DIO mice (setting [5]) is reported as “positive effects on prevention of body weight gain”. Besides, the “Prevention of body weight gain / body weight change” value in the assay with DIO mice (setting [6]) is reported as “effective”. For the same substance, the “Prevention of body weight gain” value in the assay with DIO mice (IP injection) is “positive effects on prevention of body weight gain; also recorded: effective”. For the same substance, in the assay on 3T3-L1 cells (setting [7]), the “Fructose concentration in adipocytes vs control group” value is reported as “significantly lower than the control group”.

With GRA, in the assay on 3T3-L1 mature adipocytes, the “Number and size” value was “moderate differences in the morphology of lipid droplets”. For the same substance, in the assay with 3T3-L1 cells (setting [4]), the “Fructose concentration in adipocytes vs control group” value is on record as “significantly lower than the control group”.

For KAR, in the assay with 3T3-L1 cells (setting [4]), the “Fructose concentration in adipocytes vs control group” value was “significantly lower than the control group”.

In the case of KGG, in the assay with 3T3-L1 mature adipocytes, the “Number and size” value was “moderate differences in the morphology of lipid droplets”. Also, the “Fructose concentration in adipocytes vs control group” value in the assay with 3T3-L1 cells (setting [4]) is on record as “significantly lower than the control group”.

Turning to RAK, in the assay with 3T3-L1 mature adipocytes, the “Decrease in degree of lipid accumulation” value is reported as “approximately 20%”; the “Number and size” value is given as “smaller than those in the non-treated control”; the “Reduction of lipid accumulation” value is reported as “effective in reducing lipid accumulation”. Moreover, in the assay with DIO mice (setting [5]), the “Prevention of body weight gain / body weight change” value is “positive effects on prevention of body weight gain”. For the same substance, the “Prevention of body weight gain / body weight change” value in the assay on DIO mice (setting [6]) is “effective”. The “Anti-obesity efficacy (body weight)” value with DIO mice (post-obese OM mice) is listed as “has anti-obesity efficacy”. Also, the “Prevention of body weight gain” value in the assay with DIO mice (IP injection) was “positive effects on prevention of body weight gain; also recorded: effective”. Further, the “Anti-obesity efficacy (body weight)” value in the assay on DIO mice (pre-obese OPM mice) is reported as “efficacious over GGR; also recorded: has anti-obesity efficacy”. In addition, the “Fructose concentration in adipocytes vs control group” value in the assay on 3T3-L1 cells (setting [7]) is reported as “significantly lower than the control group”. Besides, the “Average cell count per field” value in assay [3] (adipocytes, 10× magnification, ImageJ, rank among all experimental groups (FIG. 10)) was “highest”. In addition, in assay [3] (H&E, DIO mice), the “Activity by histological analysis of the fat pads” value is recorded as “more active than GGR; also recorded: highest efficacy”. For the same substance, the “Average adipocyte area per cell” value in assay [3] (ImageJ ROI, rank among all experimental groups (FIG. 10)) is “lowest”.

In the case of RGG, in the assay with 3T3-L1 cells (setting [4]), the “Fructose concentration in adipocytes vs control group” value is given as “significantly lower than the control group”.

Take RKG [reference compound]: in the assay on DIO mice (IP and SC studies, regardless of injection route or schedule), the Anti-obesity effects result is “no anti-obesity effects”. Also, the “Prevention of body weight gain / body weight change” value in the assay on DIO mice (setting [5]) was “did not show meaningful efficacy over the vehicle group”. For the same substance, the “Prevention of body weight gain” value is listed as “did not show meaningful efficacy over the vehicle group; also recorded: no anti-obese effects” with DIO mice (IP injection) and “no anti-obese effects” with DIO mice (SC injection).
